Results taken from patent publication US4616028A, “Substituted 2,3,4,9-tetrahydro-1H-carbazole-1-acetic acid derivatives, compositions and use” (American Home Products Corporation, priority 1985, dated 1986).

Columns and labels:
Adjuvant Edema = test: Preventative Adjuvant Edema (Freund's complete adjuvant, hind paw volume); format: in vivo, rat (male Sprague Dawley); details: for inhibition in vivo at 25 mg/kg / ED50: po; for inhibition in vivo at 25 mg/kg: 72 h, rat (second results table), read-out: Preventative Adjuvant Edema percent inhibition; for ED50: ED50, rat (second results table); for Preventative Adjuvant Edema % Inhibition: 25 mg/kg, p.o., rat
Method: This test is a primary screen for anti-inflammatory drugs.
Male Sprague Dawley rats (180-200 g) are used. The animals have free access water but food is withdrawn 18 hours before testing.
Drug Preparations and Administration:
Freund's complete adjuvant is prepared by suspending 5 mg killed and dried Mycobacterium butyricum (Difco) in 1 ml liquid paraffin. The test compounds are dissolved in distilled water or suspended in distilled water with a few drops of Tween 80 according to their solubility. For primary screening all drugs are administrated by gastric lavage at the arbitrary dosage of 100 mg/kg, p.o. in a volume of 0.5 ml/100 g body weight to groups of 10 animals.
The method is essentially that described by Wax et al., J. Pharmacol. Exp. Ther., 192, 166-171 (1975). Groups of rats are injected intradermally in the left hind paw with 0.1 ml of Freund's complete adjuvant. The test compound or vehicle is administrated before the adjuvant, 24 hours and 48 hours after the adjuvant (day 0, 1 and 2). The injected hind paw volume is measured before the injection of adjuvant and 24 hrs. after the last drug administration (day 3) by means of a plethysmometer (Buxco Electronics Inc.). The difference between then hind paw volume on day 0 and day 3 represents the edema volume. Phenylbutazone (50 mg/kg, p.o.) is included as a positive control.
The mean edema volume (expressed as ml±SEM) is calculated for each group and the percentage protection conferred by the drug is calculated:
where c is the mean edema volume for the untreated controls and t is the mean edema volume for the drug treated group.

Phenylquinone Writhing = test: Phenylquinone-induced writhing in mice; format: in vivo, mouse (male Swiss albino); details: for inhibition in vivo at 25 mg/kg / ED50: Mus musculus, po; for inhibition in vivo at 25 mg/kg: mice (second results table), read-out: Phenylquinone Writhing in Mice percent inhibition; for ED50: ED50, mice (second results table); for Phenylquinone Writhing in Mice % Inhibition: p.o.
Method: A further test used to determine the utility of the compounds of the present invention is designated: DRUG EFFECTS ON PHENYLQUINONE-INDUCED WRITHING IN MICE […]
The objective of this test is to determine the ability of test drugs to inhibit the nociceptive (pain) response of mice injected with a chemical irritant. This test is a primary screen for both peripheral and centrally acting analgesic drugs.
Male Swiss albino mice (15-25 g). The animals are fasted for 18 hours prior to use but have free access to water.
Drug Preparation and Administration:
Drugs are dissolved or suspended according to their solubility in 0.5% methyl cellulose or 0.5% Tween 80. They are administered by gastric lavage in a volume of 5 ml/kg. For primary screening all drugs are administered at the arbitrary dosage of 200 mg/kg, p.o. to a group of 10 mice.
A modification of the method of Siegmund at el., Proc. Soc. Exp. Biol. Med., 95, 729-731 (1957) is used. Groups of 5 mice are dosed with the test compound or vehicle control. Sixty minutes later the animals are injected i.p. with 0.3 ml/20 g body weight of a 0.02% solution of phenylquinone (PBQ; 2-phenyl-1,4-benzoquinone) and placed in individual observation boxes. The numer of writhing or abdominal squirming movements made by each mouse during the following 15 min. period is counted. The experiment is repeated with another group of 5 mice and the mean number of writhes per mouse for a group of 10 mice is calculated.
Drug treated and vehicle-treated control groups are compared and the percentage protection conferred by the drug is calculated:
Percentage protection=(c-t)100/c […]
where c=mean number of writhes in the control group where t=mean number of writhes in the test drug group

Row | Compound | inhibition in vivo at 25 mg/kg (Adjuvant Edema) | inhibition in vivo at 25 mg/kg (Phenylquinone Writhing) | further results
1 | C=CC[C@@H]1CC[C@](CC)(CC(=O)O)c2[nH]c3c(C(C)C)cccc3c21 (relative stereo) [Example 10] | 43% | 27% | –
2 | C=CC[C@@H]1CC[C@](CC)(CC(=O)O)c2[nH]c3cccc(Br)c3c21 (relative stereo) [Example 19] | 50% | 52% | –
3 | C=CC[C@@H]1CC[C@](CC)(CC(=O)O)c2[nH]c3cc(Br)ccc3c21 (relative stereo) [Example 18] | – | – | ED50 (Adjuvant Edema): 17.5 mg/kg; ED50 (Phenylquinone Writhing): 3.6 mg/kg
4 | CCc1cccc2c3c([nH]c12)C(CC)(CC(=O)O)CCC3Cc1ccccc1 (single isomer, unassigned) [Example 2 Isomer B, 1,8-Diethyl-2,3,4,9-tetrahydro-4-(phenylmethyl)-1H-carbazole-1-acetic Acid] | – | – | Preventative Adjuvant Edema % Inhibition (Adjuvant Edema): 38%; Phenylquinone Writhing in Mice % Inhibition (Phenylquinone Writhing; 25 mg/kg): 55%
5 | C=CC[C@@H]1CC[C@](CC)(CC(=O)O)c2[nH]c3c(F)cccc3c21 (relative stereo) [Example 15] | – | 27% | ED50 (Adjuvant Edema): 13.3 mg/kg
6 | C=CCC1CCC(C)(CC(=O)O)c2[nH]c3c(CC)cccc3c21 (centres unmarked) [Example 9] | 38% | 37% | –
7 | C=CCC1CCC(CCC)(CC(=O)O)c2[nH]c3c(CC)cccc3c21 (centres unmarked) [Example 21] | 24% | 21% | –
8 | C=CC[C@@H]1CC[C@](CC)(CC(=O)O)c2[nH]c3cccc(Cl)c3c21 (relative stereo) [Example 17] | – | 35% | ED50 (Adjuvant Edema): 6.6 mg/kg
9 | C=CC[C@@H]1CC[C@](CC)(CC(=O)O)c2[nH]c3c(Cl)cc(Cl)cc3c21 (relative stereo) [Example 36] | 35% | – | ED50 (Phenylquinone Writhing): 7.6 mg/kg
10 | CCc1cccc2c3c([nH]c12)C(CC)(CC(=O)O)CCC3Cc1ccccc1 (single isomer, unassigned) [Example 2 Isomer A, 1,8-Diethyl-2,3,4,9-tetrahydro-4-(phenylmethyl)-1H-carbazole-1-acetic Acid] | – | – | Preventative Adjuvant Edema % Inhibition (Adjuvant Edema): 6%; Phenylquinone Writhing in Mice % Inhibition (Phenylquinone Writhing; 25 mg/kg): 15%
11 | C=CC(C)(C)C1CCC(CC)(CC(=O)O)c2[nH]c3c(F)cccc3c21 (centres unmarked) [Example 23] | 16% | 41% | –
12 | C=CC(C)(C)C1CCC(CC)(CC(=O)O)c2[nH]c3c(C)c(Cl)ccc3c21 (centres unmarked) [Example 35] | 30% | 28% | –
13 | C=CC[C@@H]1CC[C@](CC)(CC(=O)O)c2[nH]c3c(C)ccc(Cl)c3c21 (relative stereo) [Example 38] | 48% | – | ED50 (Phenylquinone Writhing): 5.4 mg/kg
14 | C=C(C)CC1CCC(CC)(CC(=O)O)c2[nH]c3ccccc3c21 (centres unmarked) [Example 24] | 56% | 29% | –
15 | C=CC[C@@H]1CC[C@](CC)(CC(=O)O)c2[nH]c3ccc(F)cc3c21 (relative stereo) [Example 13] | 36% | 20% | –
16 | C=CC[C@@H]1CC[C@](CC)(CC(=O)O)c2[nH]c3c(Br)cccc3c21 (relative stereo) [Example 14] | – | 38% | ED50 (Adjuvant Edema): 28 mg/kg
17 | C=CC[C@@H]1CC[C@](CC)(CC(=O)O)c2[nH]c3c(C)c(Br)ccc3c21 (relative stereo) [Example 37] | 34% | – | ED50 (Phenylquinone Writhing): 3 mg/kg
18 | CCCC1CCC(CC)(CC(=O)O)c2[nH]c3c(CC)cccc3c21 (centres unmarked) [4-propyl-1,8-diethyl-2,3,4,9-tetrahydro-1H--carbazole-1-acetic acid, reference compound] | – | – | Phenylquinone Writhing in Mice % Inhibition (Phenylquinone Writhing; 25 mg/kg): 15%; Phenylquinone Writhing in Mice % Inhibition (Phenylquinone Writhing; 200 mg/kg): 56%
19 | C=CC[C@@H]1CC[C@](CC)(CC(=O)O)c2[nH]c3c(I)cccc3c21 (relative stereo) [Example 22] | 46% | – | ED50 (Phenylquinone Writhing): 17 mg/kg
